Experiments:
[1] = test system: HL60 cells; test: Proliferation measured with WST-8 reagent, HL60 cells; type: cell-based; settings: Homo sapiens, HL-60; HL60 cell line, single agent; read-out: IC50 values for PARP inhibitors in AML cell lines
Method: (§1) Proliferation was measured following incubation with WST-8 reagent. Synergistic/additive effects were calculated using Compusyn software at varying drug concentrations. Flow cytometry for apoptosis, viability, DNA damage/repair, and cell cycle effects following combination versus single drug treatment were also performed.

[2] = test system: HEL-luc cells; test: Proliferation measured with WST-8 reagent, HEL-luc cells; type: cell-based, human; settings: for IC50: Homo sapiens, HELluc cell line, single agent, read-out: IC50 values for PARP inhibitors in AML cell lines
Method: as §1

[3] = test system: Human CD33+ AML cell lines (HEL, MV4-11, and HL60); test: Proliferation by WST-8 reagent with Compusyn synergy analysis, CD33+ AML cell lines; settings: single agent, all CD33+ human AML cell lines tested
Method: Proliferation was measured by WST-8 reagent. Synergistic/additive effects were calculated using Compusyn software. Flow cytometry was performed to assess apoptosis, cell viability, and cell cycle effects.

[4] = test system: human CD33+ AML (HEL-luciferase) xenografts; type: in vivo; settings: IMGN779 15 mcg/kg, olaparib 100 mg/kg, alone or combined
Method: In these experiments, stably transfected luciferase-positive human AML cells (HEL) characterized by high hCD33 expression levels were injected via tail vein into sublethally irradiated 6-8 week old SCID mice. […] In vivo systemic leukemia disease burden was evaluated weekly by small animal bioluminescent imaging. Toxicity was determined by clinical examination and weight measurements throughout the experiment. Overall study endpoints were (a) time to overall morbidity/mortality and/or (b) change in leukemia disease burden as compared with vehicle-treated mice or mice treated with single agent therapy. […] Simple stastical analyses will be performed utilizing the Stat Prism statistical software.

[5] = test system: HEL cells; test: Cell death after DNA-damaging radiation exposure in the presence of olaparib; type: cell-based, human; settings: graded concentrations of olaparib; 0.5 Gy and 0.75 Gy radiation

IC50 [1] [µM] | Compound | IC50 [2] [µM] | growth inhibition in vitro [3] | median overall survival from inoculation [4] [days] | cell death after DNA-damaging radiation exposure [5] | relative potency among PARP inhibitors ([2]; HEL-luc and HL60 cell lines) | surviving fraction of cells ([2]; PARP inhibitor 0.8 μM, IMGN779 800 pM, compared with olaparib and niraparib)
2.5 | NC(=O)c1cccc2cn(-c3ccc([C@@H]4CCCNC4)cc3)nc12 [Niraparib, niraparib] | 7.3 | – | – | – | – | –
88 | C[C@]1(c2nc3c(C(N)=O)cccc3[nH]2)CCCN1 [Vellparib, veliparib] | > 100 | – | – | – | – | –
75 | CNCc1ccc(-c2[nH]c3cc(F)cc4c3c2CCNC4=O)cc1 [Rucaparib, rucaparib] | 39 | – | – | – | – | –
0.2 | Cn1ncnc1[C@H]1c2n[nH]c(=O)c3cc(F)cc(c23)N[C@@H]1c1ccc(F)cc1 [Talazoparib, talazoparib] | 0.4 | – | – | – | most potent PARP inhibitor | greatest decrease in surviving fraction of cells

Compound | IC50 [1] [µM] | IC50 [2] [µM] | growth inhibition in vitro [3] | median overall survival from inoculation [4] [days] | cell death after DNA-damaging radiation exposure [5] | relative potency among PARP inhibitors ([2]; HEL-luc and HL60 cell lines) | surviving fraction of cells ([2]; PARP inhibitor 0.8 μM, IMGN779 800 pM, compared with olaparib and niraparib)
O=C(c1cc(Cc2n[nH]c(=O)c3ccccc23)ccc1F)N1CCN(C(=O)C2CC2)CC1 [Olaparib, olaparib] | 8.9 | 7.4 | dose-dependent grown inhibition | 33.7 | correlation in increase cell death and apoptosis with the increase in concentration of olaparib | – | –

Reference: patent publication US20200261470A1, “COMBINATION TREATMENT WITH ANTIBODY-DRUG CONJUGATES AND PARP INHIBITORS” (IMMUNOGEN, INC., priority 2016, published 2020)
